We go through two compounds from patent US12187715B2, “Small molecule activators of Tie-2” (EyePoint Pharmaceuticals, Inc., priority 2019, dated 2025).

A short description of data set [1]: Solubility testing in water by portionwise addition until saturation. It counts as physicochemical. The method, then: The solubility of compounds 2-4 was determined by portionwise addition of the compounds to water until saturation was obtained. Water (10 mL) was added to a 20-mL vial. About 100 mg of Compound 2 was added. The suspension was stirred at room temperature for 20 minutes until the contents became a clear solution. Compound 2 (˜100 mg portionwise) was added repeatedly with 30 min stirring time between the additions. Once a suspension was obtained after continuous stirring for 2 hours, the suspension was stirred overnight. The same procedure was used for the suspension preparations of Compound 3 and Compound 4.
After stirring overnight, filtration of each sample was attempted.
An aliquot of the suspension of Compound 2 was filtered through a 0.22 micron inline syringe filter.
About 1 mL of the aqueous solutions prepared above was diluted with water by 50%. The pH of the 50% diluted solutions was adjusted to pH 7 either by 0.1 N HCl or by 0.1 N NaOH. Solubility values for the three compounds in the solutions/suspensions before and after dilution are given in the in TABLE 3.
The solubility of Compounds 2-4 was determined by portionwise addition of the compounds to water until saturation was obtained. After stirring overnight, the suspensions were filtered and analyzed by HPLC. […] The solubility of Compound 3 was >200 mg/mL. The absolute solubility of Compound 3 was not determined because in the course of analysis, the solution of Compound 3 became too viscous to stir. […] The 50% diluted solutions of Compounds 2-4 were not viscous, and the compounds remained in solution for 4 weeks. […] All of the diluted solutions were easily syringable over 4 weeks' time.

Data set [2] in a line: Physical stability (appearance) of the aqueous solutions standing at room temperature. Conditions: for Appearance of solution: undiluted. It counts as physicochemical.
Data set [3] in a line: Syringability testing (200 g weight on BD 1-mL syringe plunger, 27 G needle). It counts as physicochemical. Conditions: for Syringability: time to expel 1 mL: 50% diluted solution. The method, then:
Syringability testing was carried out by applying 200 g of weight on top of a BD 1-mL syringe plunger and measuring the time required to expel 1 mL of the saturated solutions through a 27 G needle. The times are recorded in TABLE 4. At T=0, 43 seconds were required to expel 1 mL of Compound 2, while 8 seconds were required to expel 1 mL of Compound 4. In contrast, approximately 5 minutes were required to expel only 0.1 mL of Compound 3, based on the very high viscosity of the solution relative to that of the other two.
Syringability test results of the 50% diluted solutions (TABLE 5) indicated a slight increase in viscosity (syringability test for water was 10 sec). All three solutions remained easily syringable.

A short description of data set [4]: HPLC purity analyses of aqueous solutions over time at room temperature (chemical stability). It counts as physicochemical.
The next data set deals with phospho-Akt1 (pAkt). In words: Phospho-Akt activation assay in human umbilical vein endothelial cells (Western blot). Format: cell-based. The method, then: The ability of the small molecule analogues as shown in EXAMPLES 1-3 to stimulate production of phospho-Akt1 (pAkt) was tested. Akt plays a critical role in controlling cell survival and apoptosis, and Akt phosphorylation is increased by the activation of Tie-2. Akt activation can be detected by an antibody that recognizes phosphorylation on the serine 473 residue on Akt.
HUVECs were seeded at 500,000 cells/mL in chemically-defined basal media, and supplemented with distinct growth factors (EGM-2). The following growth factors were required for survival and normal phenotypic expression of endothelial characteristics: fetal bovine serum 2%, hydrocortisone, human fibroblast growth factor-B, vascular endothelial growth factor, recombinant insulin growth factor R3, ascorbic acid, human epidermal growth factor, gentamicin sulfate, amphotericin B, and heparin. Cells were derived from one donor, cultivated in 10 cm dishes, and expanded upon reaching 90% confluence. After three passages, the cells were expanded and ready for testing.
The cells were seeded at 25,000 cells/mL in 6-well plates, and covered with 2 mL of complete media. The cells were fed on day 2 of culture with 2 mL of fresh EGM-2 media. 72 hours after plating, the cells were serum starved by rinsing twice with 2 mL of sterile phosphate buffered saline, and then placed at 37° C. for 3 hours in the presence of basal EGM-2 media (1.5 mL/well without growth factors). The serum starvation allowed the cells to become quiescent.
Compounds 2-4 were dissolved in distilled deionized water at the following concentrations: • Compound 2 (Molecular weight: 622.7): 31 mg/ml. • Compound 3 (Molecular weight: 622.7): 26 mg/ml. • Compound 4 (Molecular weight: 636.7): 32 mg/ml.
All compounds were stored at 4° C. […] Stock concentrations of the above molecules were made at a final working concentration of 1 mM. Specific microliter volumes of the working concentration were added to each 6 well plate at the following concentrations: 3, 10, and 30 micromolar (μM). Cells were treated for 30 minutes.
10× cell lysis buffer was diluted fresh with dH2O. The 1× cell lysis buffer contained: 20 mM Tris-HCl (pH 7.5), 150 mM NaCl, 1 mM Na2EDTA, 1 mM EGTA, 1% Triton, 2.5 mM sodium pyrophosphate, 1 mM β-glycerophosphate, 1 mM Na3VO4, 1 μg/ml leupeptin, and 1 mM PMSF. Immediately before use, 1 mM PMSF was prepared by diluting from a stock of 1 M PMSF made up in DMSO. In addition, a 1× concentration of a Halt protease & phosphatase inhibitor cocktail was included. At the end of the 30 minute treatment, the media was discarded from the cell culture wells by shaking out, and the remaining media was aspirated off the wells. Ice-cold lysis buffer was added at 140 μL/well, and the culture was placed on ice or in a cold room for 30 minutes while rocking. Cell lysates were collected using a cell scraper, placed in microfuge tubes, and stored at −80° C. The levels of protein were quantitated using a microtiter plate BCA protein assay.
2× Laemmli sample buffer was added in equal volume to the […] cell lysis buffer, which contained the lysed endothelial cells. The solution was heated at 100° C. for 5 minutes and then sonicated for 10 seconds. After sonication, the lysates were spun by centrifuge at 4° C. for 5 minutes at 17,000 rpm. 70-100 μg of protein calculated from BCA assay prior to addition of 2× Laemmli sample were added per well of an 8% polyacrylamide gel.
Electrophoresis was performed at 150 volts for approximately 90 minutes at room temperature with 1× Laemmli running buffer. The proteins from the gel were transferred to nitrocellulose at 100 volts for 45 minutes on ice.
The nitrocellulose membranes were removed quickly without drying and placed in phosphate buffered saline (pH 7.3) with 1% nonfat dried milk. The membranes were blocked in the milk solution while rocking for 2 hours at room temperature or overnight at 4° C. […]
Background: A western blot detects proteins with antibodies after separation by electrophoresis.

“Also recorded” adds a separate entry of the source.

For the compound `COC(=O)N[C@@H](Cc1ccccc1)C(=O)N(C)[C@@H](Cc1ccc(NS(=O)(=O)[O-])cc1)c1csc(-c2cccs2)n1.[Na+]` [Compound 3, sodium (4-{(S)-2-{(S)-2-[(methoxycarbonyl)amino]-N-methyl-3-phenylpropanamido}-2-[2-(thiophen-2-yl)thiazol-4-yl]ethyl}phenyl)sulfamate], the “Physical state of the preparation” value in data set [1] (50% dilution, T = 4 weeks) is “(solution)”; in data set [1] (Before dilution, T = 0), “(viscous solution)”. Besides, in data set [1] (Before dilution, T = 5 weeks, room temperature), the “Solubility value in water” value was “No change*”. Besides, the “Amount (g) of compound added until saturation” value in data set [1] (added portionwise to 10 mL water, room temperature) is 2.323 g. For the same compound, the Physical appearance result in data set [1] (after portionwise addition to 10 mL water) is given as “hazy, highly viscous mixture; also recorded: No precipitate”. Besides, the Filtration result in data set [1] (filtration of the sample attempted after stirring overnight) was “not filtered successfully and No”. The compound also showed a solubility at 4 weeks in data set [1] (water, pH 7, aqueous buffer, 50% dilution with water, adjusted to pH 7, T = 4 weeks) above 115 mg/mL. In data set [1] (water, thermodynamic from solid, Before dilution, T = 0, estimated from weight added), the solubility at 0 weeks is above 230 mg/mL. In data set [1] (water, thermodynamic from solid, Conclusions: suspensions stirred overnight, filtered and analyzed by HPLC, initial), this compound displayed a solubility above 200 mg/mL. Further, the “Gelation or precipitation of undiluted solution” value in data set [2] (throughout the 4-week study period (Compound 2: over 5 weeks)) is recorded as “No gelation or precipitation”. Further, the Appearance of solution entry in data set [2] (T = 0), in data set [2] (T = 2 week), in data set [2] (T = 3 week), in data set [2] (T = 4 week), in data set [2] (T = 1 day) and in data set [2] (T = 2 day) was “Hazy” in each case. Further, the Appearance of solution entry in data set [2] (T = 3 day), in data set [2] (T = 4 day), in data set [2] (T = 5 day) and in data set [2] (T = 6 day) was “Hazy” in each case. Besides, the “Syringability: time to expel 1 mL” value in data set [3] (T = 2 week) amounted to 12 s; in data set [3] (T = 3 week) it was 13 s; in data set [3] (T = 4 week), 15 s; in data set [3] (T = 2 day), 13 s; in data set [3] (T = 3 day), 14 s; in data set [3] (T = 4 day) it was 17 s. Also, the “Syringability: time to expel 1 mL” value in data set [3] (T = 7 day) turned out to be 15 s. The “Syringability of the saturated solutions (in words)” value in data set [3] (undiluted solutions) was “too viscous to syringe”. In addition, the HPLC purity is listed as 97.9% in data set [4] (50% diluted samples, room temperature, T = 4 weeks); 99.08% in data set [4] (undiluted samples, T = 0 (dry sample)); 97.3% in data set [4] (undiluted samples, room temperature, T = 5 weeks); 98.26% in data set [4] (undiluted samples, room temperature, T = 1 day). In addition, the “pAkt signal above control” value with phospho-Akt1 (pAkt) (HUVECs, 30 μM, 30 minutes treatment) is recorded as 80%. Besides, in the data set with phospho-Akt1 (pAkt) (HUVECs, 3, 10 and 30 μM), the “Relative potencies for activation of pAkt” value is reported as “Compound 2>Compound 4>Compound 3”.

For `CCc1csc([C@H](Cc2ccc(NS(=O)(=O)O)cc2)NC(=O)[C@H](Cc2ccccc2)NC(=O)OC)n1` [Compound 5, 4-{(S)-2-[(S)-2-(methoxycarbonylamino)-3-phenylpropanamido]-2-(4-ethylthiazol-2-yl)ethyl}phenylsulfamic acid, reference compound], the “pAkt levels above control” value with phospho-Akt1 (pAkt) (HUVECs, highest dose 10 μM, two separate experiments) was 278%.

A word on the solubility: it is the concentration that dissolves in the medium under given conditions.
